According to US12139472B2, “Inhibitors of advanced glycation end products” (priority 2019, dated 2024):

Target: T1, CYP3A (Homo sapiens, UniProt P08684)
T1 construct: Two studies were conducted in human liver microsomes (HLM); tissue Eurofins G232 panel; host or cells: human liver microsomes
Format: in vitro ADME
Settings: HLM
Text: Compound 5 (PTG-630 free base) and 7 additional compounds for CYP3A P450 inhibition.
Imidazole (and benzimidazole) containing drugs are ubiquitous in pharmacological practice; however, drug-drug interactions (DDI) have been observed with some imidazole-containing classes, such as the antifungal azoles typified by ketoconazole. It is believed that the imidazole moiety accounts for their ability to inhibit CYP3A, the major DDI enzyme that metabolizes up to 50% of common drugs. The compounds of the disclosure incorporate an imidazole moiety attached to a pyridine ring via the imidazole C-2. They all share an imidazo-hydroxypyridine theme that can bind redox metal ions, while differing in the nature of the X side-chain. The potential of the compounds of the disclosure for DDI was evaluated by screening their inhibition of CYP3A.
Two studies were conducted in human liver microsomes (HLM). Lead candidate PTG-630 was tested using the Eurofins G232 panel (Drug Metab Dispos. 2001 January; 29(1):23-9), where inhibition was measured against seven CYP enzymes; CYP3A4 was tested using two different substrates, midazolam and testosterone. In a second study, inhibition of CYP3A4 (midazolam substrate only) was compared for 8 compounds of interest. The test protocol involved one-point measurements in duplicate, where inhibition was measured at a fixed 10 μM concentration of candidate inhibitors. In all cases, the substrate for each CYP enzyme was at a concentration equal to its specific Km value that was independently obtained from an 8-point dose-response study. Based on the observed value for percent inhibition for each test compound, we calculated of an IC50 assuming a competitive mode of inhibition. If percent inhibition for an inhibitor at a concentration of [I] is denoted by P, then: IC50=[I]*(100−P)/P In the single-point assay, [I] is 10 μM. If measured inhibition is 10%, then IC50=10*(100-10)/10=90 μM. […]

T1 sequence (P08684 2-503): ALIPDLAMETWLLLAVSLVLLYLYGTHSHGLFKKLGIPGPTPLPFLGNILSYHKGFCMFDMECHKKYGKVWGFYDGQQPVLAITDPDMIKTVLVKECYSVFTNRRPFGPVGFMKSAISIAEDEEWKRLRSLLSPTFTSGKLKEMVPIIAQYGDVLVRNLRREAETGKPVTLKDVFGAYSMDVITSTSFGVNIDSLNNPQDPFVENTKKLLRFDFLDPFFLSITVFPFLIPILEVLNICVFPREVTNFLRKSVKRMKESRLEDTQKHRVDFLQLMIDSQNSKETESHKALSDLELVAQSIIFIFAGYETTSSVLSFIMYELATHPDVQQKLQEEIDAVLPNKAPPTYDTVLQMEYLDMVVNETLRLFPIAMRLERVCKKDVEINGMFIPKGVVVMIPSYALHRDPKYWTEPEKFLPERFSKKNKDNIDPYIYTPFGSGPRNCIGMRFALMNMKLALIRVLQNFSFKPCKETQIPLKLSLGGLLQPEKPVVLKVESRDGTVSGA

Structure (SMILES): Cc1ncc(CN2CCOCC2)c(-c2ncc[nH]2)c1O [PTG-630]
- P % inhib (CYP3A, substrate testosterone at Km, Inhib Conc. 1.0E−05 M): 1.56%
- IC50 (CYP3A, testosterone, from one-point % inhibition at 10 μM, IC50=[I]*(100−P)/P, read-out: Estimated IC50): 631 µM
- CYP3A inhibition using testosterone as substrate (in words) (10 μM): very weak inhibition
